Reference: US20020123037A1, “Selection Procedure Using Prodrug/Enzyme System” (Cobra Therapeutics Limited, priority 1999, published 2002)
Where “and” joins values, the source holds several entries; their conditions need not be identical. Equal values may be shown once.

What was measured:
[1] = test system: colorectal, pancreatic and ovarian tumour cell lines; settings: retroviral transfer of nitroreductase expression cassette; McNeish et al., 1998; Green et al., 1996; cited from earlier work
wild type nitroreductase = wild type nitroreductase (Escherichia coli, UniProt P38489); settings: CB1954 as substrate, reference 9, cited from earlier work
wild type nitroreductase, sequence (P38489 whole entry): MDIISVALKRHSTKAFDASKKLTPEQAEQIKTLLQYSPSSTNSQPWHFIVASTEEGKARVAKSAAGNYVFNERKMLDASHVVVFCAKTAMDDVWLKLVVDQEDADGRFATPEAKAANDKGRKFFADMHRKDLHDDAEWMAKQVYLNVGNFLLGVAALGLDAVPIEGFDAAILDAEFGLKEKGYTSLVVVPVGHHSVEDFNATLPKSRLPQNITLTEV

[2] = test system: nitroreductase-expressing tumours; settings: mice harbouring nitroreductase-expressing tumours; McNeish et al., 1998; cited from earlier work
[3] = test system: E.coli C600Hfl lysogens of λJG3J1 and λJG16C1; assay: Induction of phage release from 5:1 mixture of lysogens JG3J1 (control) and JG16C1 (ntr) by CB1954; assay type: cell-based; settings: for #### (Control phage in the section above) / No. cols / Phage particles / No. ntr phage (colonies containing λJG16C1 of colonies screened by PCR): 500 μM CB1954
Protocol: E.coli C600Hfl (obtained from Promega Cat No. D3131) were infected with λJG3J1 or λJG16C1 for 15min at 37 °C and spread onto kanamycin (30µg/ml) selective Lennox agar (LA) plates to select for lysogens. A single colony of each was picked, and the lysogenic bacteria were then grown aerobically at 37 °C to mid log phase in LB containing 0.1mM IPTG. Approximately 4.8 x 10^8 λJG3J1 lysogens and 9 x 10^7 λ JG16C1 lysogens (as estimated from the optical density; approximate 5:1 ratio without:with nitroreductase) were mixed in 5ml LB containing 0.1mM IPTG in the presence or absence of 500 µM CB1954 (provided by Cobra Therapeutics and diluted from a 50mM stock solution in 2:7 N-methyl pyrrolidinone:PEG300). The mixtures of bacterial lysogens were incubated at 37 °C with shaking and 50µl samples removed at intervals between 15 and 185 minutes after mixing.
Each sample was immediately mixed with 1ml LB and 100µl chloroform to kill any bacteria, briefly centrifuged to pellet debris, and the supernatant diluted 1 in 10 before using 10 µl to infect E. coli C600Hfl and plating onto LA containing kanamycin, to select for bacteria lysogenised by bacteriophage in the sample.
The number of colonies growing from the samples was counted the following day, and indicates the total number of bacteriophage present in the sample.
The polymerase chain reaction (PCR) was used to determine whether the bacteria in each colony contained λJG3J1 or λJG16C1. A number of individual colonies were picked at random from the most relevant plates and transferred to a 200µl PCR tube, lysed in a microwave for 2min and 35µl of PCR reaction mix [16mM (NH4)2SO4, 67mM Tris-Cl (pH 8.8 at 25 °C), 0.01% Tween-20 (Bioline), 0.2mM each dNTP, 1.5mM MgCl2, 1 U Biotaq (Bioline)] plus 0.25 µM primersJ
A tube containing reaction mix but no bacteria was used as a control to check for contamination of PCR reaction components. After 30 cycles (94 °C/5min; then 30x 94 °C/45s, 55 °C/45s, 72 °C/160s; then 72 °C/10min) the PCR products were analysed by gel electrophoresis to determine the product size. Lysogens containing λJG16C1 expressing ntr gave a 1.1kb product whereas λJG3J1 lysogens gave a 0.4kb product. All the colonies gave one or the other of these two bands but not both, and the negative control confirmed the absence of contamination in the PCR.

mammalian DT diaphorases = settings: cited from earlier work
[4] = 15 min after mixing & induction
[5] = 30 min after mixing & induction
[6] = 45 min after mixing & induction
[7] = 60 min after mixing & induction
[8] = 75 min after mixing & induction
[9] = 90 min after mixing & induction
[10] = 125 min after mixing & induction
[11] = 155 min after mixing & induction
[12] = 185 min after mixing & induction

NC(=O)c1cc(N2CC2)c([N+](=O)[O-])cc1[N+](=O)[O-] [CB1954, 5-[aziridin-1-yl]-2,4-dinitrobenzamide]
sensitisation of tumour cell lines to the prodrug [1]: can sensitise | turnover rate kcat (wild type nitroreductase): 6 s⁻¹ | Km (wild type nitroreductase; read-out: Michaelis constant KM): 860 µM | survival of mice [2]: Significantly increased survival and apparent cures | #### (Control phage in the section above) ([3]; 15 min, no PCR typing): 0.6 | No. cols [3, 4]: 3 | Phage particles [3, 4]: 0.6 10^−6 per ml | #### (Control phage in the section above) ([3]; 30 min, no PCR typing): 1 | No. cols [3, 5]: 5 | Phage particles [3, 5]: 1 10^−6 per ml | #### (Control phage in the section above) ([3]; 45 min, no PCR typing): 2.2 | No. cols [3, 6]: 11 | Phage particles [3, 6]: 2.2 10^−6 per ml | #### (Control phage in the section above) ([3]; 60 min): 3.82 | No. ntr phage (colonies containing λJG16C1 of colonies screened by PCR) ([3]; 60 min): 1 of 11 | No. cols [3, 7]: 21 | Phage particles [3, 7]: 4.2 10^−6 per ml | #### (Control phage in the section above) ([3]; 75 min): 4.79 | No. ntr phage (colonies containing λJG16C1 of colonies screened by PCR) ([3]; 75 min): 6 of 19 | No. cols [3, 8]: 35 | Phage particles [3, 8]: 7 10^−6 per ml | #### (Control phage in the section above) ([3]; 90 min): 9.6 | No. ntr phage (colonies containing λJG16C1 of colonies screened by PCR) ([3]; 90 min): 18/30 and 18 of 30 | No. cols [3, 9]: 120 | Phage particles [3, 9]: 24 10^−6 per ml | #### (Control phage in the section above) ([3]; 125 min): 33.4 | No. ntr phage (colonies containing λJG16C1 of colonies screened by PCR) ([3]; 125 min): 11 of 23 | No. cols [3, 10]: 320 | Phage particles [3, 10]: 64 10^−6 per ml | #### (Control phage in the section above) ([3]; 155 min): 54.7 | No. ntr phage (colonies containing λJG16C1 of colonies screened by PCR) ([3]; 155 min): 6 of 25 | No. cols [3, 11]: 360 | Phage particles [3, 11]: 72 10^−6 per ml | #### (Control phage in the section above) ([3]; 185 min): 72 | No. ntr phage (colonies containing λJG16C1 of colonies screened by PCR) ([3]; 185 min): 0 of 10 | No. cols [3, 12]: 360 | Phage particles [3, 12]: 72 10^−6 per ml | enrichment of λJG16C1 ([3]; 90 minute time point, 60% versus 16% at mixing): ~ 4 fold | proportion of λJG16C1 among recovered bacteriophage (peak) ([3]; culture exposed to CB1954, at 90 minutes, λJG16C1 16% of the mixture at mixing): 60% | peak concentration of the λJG16C1 ([3]; culture exposed to CB1954, at 125 minutes): 3 x 10^7 per ml | concentration of total bacteriophages released into the medium ([3]; culture exposed to CB1954, at 155 minutes): 7.2 x 10^7 per ml | concentration of total bacteriophages released into the medium ([3]; culture exposed to CB1954, at early times): 6 x 10^5 per ml | colony number ([3]; culture exposed to CB1954, end of the timecourse): ~ 360 | colony number ([3]; culture exposed to CB1954, start of the timecourse): 3 | level of bacteriophage above background ([3]; first ~60 minutes of exposure to CB1954): no increase

NC(=O)c1cc(N(CCCl)CCCl)c([N+](=O)[O-])cc1[N+](=O)[O-] [SN 23862]
activation by mammalian DT diaphorases (mammalian DT diaphorases): not activated
